# Tested on: carrageenin-induced edema
# Assay: carrageenin-induced edema test in rats (anti-inflammatory)
# Format: in vivo
# Conditions: Rattus norvegicus, po, 5 mg/kg p.o., read-out: % Decrease of the induced edema
# Description: (§1) An aspect of the anti-inflammatory utility was evidenced by means of the carrageenin-induced edema test in rats, which was performed according to the methodology described by C. A. Winter et al., Proc. Soc. Exptl. Biol. Med., 111, 544, 1962. […] It is also to be noted that the toxicities of the aminopyrrole derivatives which are the object of the present invention are very low; with few exceptions, their LD50 values are always higher than 1000 mg/kg p.o. in mice. Toxicities were determined according to the procedure described by Lichtfield and Wilcoxon, J. Pharm. Exp. Therm., 96, 99, 1949.
# The following Table summarizes the aforementioned anti-inflammatory action and LD50 values.
row,Compound,inhibition in vivo at 5 mg/kg [%]
1,"COc1ccc(-c2[nH]c(C)c(C(C)=O)c2N)cc1 [Example 14, 4-Acetyl-3-amino-2-(p-methoxyphenyl)-5-methylpyrrole]",23
2,"CC(=O)c1c(C)[nH]c(-c2ccc(C)cc2)c1N [Example 13, 4-Acetyl-3-amino-5-methyl-2-(p-tolyl)-pyrrole]",23.2
3,"CC(=O)c1c(C)[nH]c(-c2ccccc2)c1N.Cl [Example 1, 4-Acetyl-3-amino-5-methyl-2-phenylpyrrole hydrochloride]",23.4

# Same assay, conditions: Rattus norvegicus, po, 10 mg/kg p.o., read-out: % Decrease of the induced edema
row,Compound,inhibition in vivo at 10 mg/kg [%]
1,"COc1ccc(-c2[nH]c(C)c(C(C)=O)c2N)cc1 [Example 14, 4-Acetyl-3-amino-2-(p-methoxyphenyl)-5-methylpyrrole]",31.1
2,"CC(=O)c1c(C)[nH]c(-c2ccc(C)cc2)c1N [Example 13, 4-Acetyl-3-amino-5-methyl-2-(p-tolyl)-pyrrole]",31.9
3,"CC(=O)c1c(C)[nH]c(-c2ccccc2)c1N.Cl [Example 1, 4-Acetyl-3-amino-5-methyl-2-phenylpyrrole hydrochloride]",32.5

# Same assay, conditions: Rattus norvegicus, po, 20 mg/kg p.o., read-out: % Decrease of the induced edema
row,Compound,inhibition in vivo at 20 mg/kg [%]
1,"COc1ccc(-c2[nH]c(C)c(C(C)=O)c2N)cc1 [Example 14, 4-Acetyl-3-amino-2-(p-methoxyphenyl)-5-methylpyrrole]",35.1
2,"CC(=O)c1c(C)[nH]c(-c2ccc(C)cc2)c1N [Example 13, 4-Acetyl-3-amino-5-methyl-2-(p-tolyl)-pyrrole]",43.5
3,"CC(=O)c1c(C)[nH]c(-c2ccccc2)c1N=Cc1ccccc1 [Example 46, 4-Acetyl-3-benzylideneamino-5-methyl-2-phenylpyrrole]",23.9
4,"CC(=O)c1c(C)[nH]c(-c2ccccc2)c1N.Cl [Example 1, 4-Acetyl-3-amino-5-methyl-2-phenylpyrrole hydrochloride]",39
5,"COc1ccc(C(=O)c2c(C)[nH]c(-c3ccccc3)c2N)cc1 [Example 24, 3-Amino-4-(p-methoxybenzoyl)-5-methyl-2-phenylpyrrole]",20.6
6,"CCC(=O)c1c(C)[nH]c(-c2ccccc2)c1N [Example 21, 3-Amino-5-methyl-2-phenyl-4-propionylpyrrole]",25.3
7,"CC(=O)c1c(C)[nH]c(-c2ccc(Cl)cc2)c1N [Example 26, 4-Acetyl-3-amino-2-(p-chlorophenyl)-5-methylpyrrole]",29.2

# Same assay, conditions: Rattus norvegicus, po, 50 mg/kg p.o., read-out: % Decrease of the induced edema
row,Compound,inhibition in vivo at 50 mg/kg [%]
1,"CCOC(=O)c1c(N)c[nH]c1C.Cl [Example 19, 3-Amino-4-carbethoxy-5-methylpyrrole hydrochloride]",24.3
2,"CC(=O)c1c(C)[nH]c(-c2ccccc2C)c1N [Example 29, 4-Acetyl-3-amino-2-(o-tolyl)-5-methylpyrrole]",26.4
3,"CCOC(=O)c1c(C)[nH]c(-c2ccc(C)cc2)c1N.Cl [Example 15, 3-Amino-4-carbethoxy-5-methyl-2-(p-tolyl)-pyrrole hydrochloride]",29.6
4,"COC(=O)c1c(C(N)=O)[nH]c(-c2ccccc2)c1N [Example 55, 3-Amino-5-carbamoyl-4-carbomethoxy-2-phenyl-pyrrole]",27.1
5,"COc1ccc(-c2[nH]c(C)c(C(C)=O)c2N)cc1 [Example 14, 4-Acetyl-3-amino-2-(p-methoxyphenyl)-5-methylpyrrole]",41.9
6,"CCCC(=O)c1c(C)[nH]c(-c2ccccc2)c1N.Cl [Example 35, 3-Amino-4-butyryl-5-methyl-2-phenylpyrrole hydrochloride]",32.4
7,"CC(=O)c1c(C)[nH]c(-c2ccc(C)cc2)c1N [Example 13, 4-Acetyl-3-amino-5-methyl-2-(p-tolyl)-pyrrole]",50.7
8,"CC(=O)c1c(C)[nH]c(-c2ccccc2)c1N=Cc1ccccc1 [Example 46, 4-Acetyl-3-benzylideneamino-5-methyl-2-phenylpyrrole]",35.2
9,"CC(=O)c1c(C)[nH]c(-c2ccccc2)c1N.Cl [Example 1, 4-Acetyl-3-amino-5-methyl-2-phenylpyrrole hydrochloride]",43.8
10,"COc1ccc(C(=O)c2c(C)[nH]c(-c3ccccc3)c2N)cc1 [Example 24, 3-Amino-4-(p-methoxybenzoyl)-5-methyl-2-phenylpyrrole]",32.3
11,"CCC(=O)c1c(C)[nH]c(-c2ccccc2)c1N [Example 21, 3-Amino-5-methyl-2-phenyl-4-propionylpyrrole]",36
12,"CC(=O)c1c(C)[nH]c(-c2ccc(Cl)cc2)c1N [Example 26, 4-Acetyl-3-amino-2-(p-chlorophenyl)-5-methylpyrrole]",43.1

# Same assay, conditions: Rattus norvegicus, po, 100 mg/kg p.o., read-out: % Decrease of the induced edema
row,Compound,inhibition in vivo at 100 mg/kg [%]
1,"CCOC(=O)c1c(N)c[nH]c1C.Cl [Example 19, 3-Amino-4-carbethoxy-5-methylpyrrole hydrochloride]",45.9
2,"CC(=O)c1c(C)[nH]c(-c2ccccc2C)c1N [Example 29, 4-Acetyl-3-amino-2-(o-tolyl)-5-methylpyrrole]",33.8
3,"CCOC(=O)c1c(C)[nH]c(-c2ccc(C)cc2)c1N.Cl [Example 15, 3-Amino-4-carbethoxy-5-methyl-2-(p-tolyl)-pyrrole hydrochloride]",40.8
4,"COC(=O)c1c(C(N)=O)[nH]c(-c2ccccc2)c1N [Example 55, 3-Amino-5-carbamoyl-4-carbomethoxy-2-phenyl-pyrrole]",41.4
5,"COc1ccc(-c2[nH]c(C)c(C(C)=O)c2N)cc1 [Example 14, 4-Acetyl-3-amino-2-(p-methoxyphenyl)-5-methylpyrrole]",55.4
6,"CCCC(=O)c1c(C)[nH]c(-c2ccccc2)c1N.Cl [Example 35, 3-Amino-4-butyryl-5-methyl-2-phenylpyrrole hydrochloride]",42
7,"CC(=O)c1c(C)[nH]c(-c2ccc(C)cc2)c1N [Example 13, 4-Acetyl-3-amino-5-methyl-2-(p-tolyl)-pyrrole]",69.6
8,"CC(=O)c1c(C)[nH]c(-c2ccccc2)c1N=Cc1ccccc1 [Example 46, 4-Acetyl-3-benzylideneamino-5-methyl-2-phenylpyrrole]",47.9
9,"CC(=O)c1c(C)[nH]c(-c2ccccc2)c1N.Cl [Example 1, 4-Acetyl-3-amino-5-methyl-2-phenylpyrrole hydrochloride]",58.9
10,"COc1ccc(C(=O)c2c(C)[nH]c(-c3ccccc3)c2N)cc1 [Example 24, 3-Amino-4-(p-methoxybenzoyl)-5-methyl-2-phenylpyrrole]",42.2
11,"CCC(=O)c1c(C)[nH]c(-c2ccccc2)c1N [Example 21, 3-Amino-5-methyl-2-phenyl-4-propionylpyrrole]",43
12,"CC(=O)c1c(C)[nH]c(-c2ccc(Cl)cc2)c1N [Example 26, 4-Acetyl-3-amino-2-(p-chlorophenyl)-5-methylpyrrole]",58.5

# Same assay, conditions: Rattus norvegicus, po, 200 mg/kg p.o., read-out: % Decrease of the induced edema
row,Compound,inhibition in vivo at 200 mg/kg [%]
1,"CC(=O)c1c(C)[nH]c(-c2ccccc2C)c1N [Example 29, 4-Acetyl-3-amino-2-(o-tolyl)-5-methylpyrrole]",42.6
2,"CCOC(=O)c1c(C)[nH]c(-c2ccc(C)cc2)c1N.Cl [Example 15, 3-Amino-4-carbethoxy-5-methyl-2-(p-tolyl)-pyrrole hydrochloride]",58.3
3,"COC(=O)c1c(C(N)=O)[nH]c(-c2ccccc2)c1N [Example 55, 3-Amino-5-carbamoyl-4-carbomethoxy-2-phenyl-pyrrole]",56.3
4,"COc1ccc(-c2[nH]c(C)c(C(C)=O)c2N)cc1 [Example 14, 4-Acetyl-3-amino-2-(p-methoxyphenyl)-5-methylpyrrole]",67.6
5,"CC(=O)c1c(C)[nH]c(-c2ccc(C)cc2)c1N [Example 13, 4-Acetyl-3-amino-5-methyl-2-(p-tolyl)-pyrrole]",75.4
6,"CC(=O)c1c(C)[nH]c(-c2ccccc2)c1N=Cc1ccccc1 [Example 46, 4-Acetyl-3-benzylideneamino-5-methyl-2-phenylpyrrole]",69
7,"CC(=O)c1c(C)[nH]c(-c2ccccc2)c1N.Cl [Example 1, 4-Acetyl-3-amino-5-methyl-2-phenylpyrrole hydrochloride]",76.6
8,"CC(=O)c1c(C)[nH]c(-c2ccc(Cl)cc2)c1N [Example 26, 4-Acetyl-3-amino-2-(p-chlorophenyl)-5-methylpyrrole]",71

# Tested on: not listed separately
# Assay: CNS-depressant utility, general method of S. Irwin
# Conditions: in vivo
# Source text: This characteristic was investigated according to the general method proposed by S. Irwin, Psychopharmacologia (Berl.), 13, 222, 1968. […] This is undoubtedly another vary favorable characteristic of the inventive compounds, as a certain sedative and myorelaxing effect is useful in patients affected by severe inflammatory disease.
row,Compound,sedative and myorelaxing activity
1,"CCOC(=O)c1c(C)[nH]c(-c2ccc(C)cc2)c1N.Cl [Example 15, 3-Amino-4-carbethoxy-5-methyl-2-(p-tolyl)-pyrrole hydrochloride]",good degree of sedative and myorelaxing activity
2,"CC(=O)c1c(C)[nH]c(-c2ccccc2)c1N.Cl [Example 1, 4-Acetyl-3-amino-5-methyl-2-phenylpyrrole hydrochloride]",good degree of sedative and myorelaxing activity

# Tested on: not listed separately
# Assay: acute toxicity (LD50), procedure of Lichtfield and Wilcoxon
# Conditions: mouse, in vivo, po, mice
# Description: as §1
row,Compound,LD50 [mg/kg]
1,"CCOC(=O)c1c(N)c[nH]c1C.Cl [Example 19, 3-Amino-4-carbethoxy-5-methylpyrrole hydrochloride]",500
2,"CC(=O)c1c(C)[nH]c(-c2ccccc2C)c1N [Example 29, 4-Acetyl-3-amino-2-(o-tolyl)-5-methylpyrrole]",> 1000
3,"CCOC(=O)c1c(C)[nH]c(-c2ccc(C)cc2)c1N.Cl [Example 15, 3-Amino-4-carbethoxy-5-methyl-2-(p-tolyl)-pyrrole hydrochloride]",> 1000
4,"COC(=O)c1c(C(N)=O)[nH]c(-c2ccccc2)c1N [Example 55, 3-Amino-5-carbamoyl-4-carbomethoxy-2-phenyl-pyrrole]",1000
5,"COc1ccc(-c2[nH]c(C)c(C(C)=O)c2N)cc1 [Example 14, 4-Acetyl-3-amino-2-(p-methoxyphenyl)-5-methylpyrrole]",> 1000
6,"CCCC(=O)c1c(C)[nH]c(-c2ccccc2)c1N.Cl [Example 35, 3-Amino-4-butyryl-5-methyl-2-phenylpyrrole hydrochloride]",500
7,"CC(=O)c1c(C)[nH]c(-c2ccc(C)cc2)c1N [Example 13, 4-Acetyl-3-amino-5-methyl-2-(p-tolyl)-pyrrole]",> 1000
8,"CC(=O)c1c(C)[nH]c(-c2ccccc2)c1N=Cc1ccccc1 [Example 46, 4-Acetyl-3-benzylideneamino-5-methyl-2-phenylpyrrole]",> 1000
9,"CC(=O)c1c(C)[nH]c(-c2ccccc2)c1N.Cl [Example 1, 4-Acetyl-3-amino-5-methyl-2-phenylpyrrole hydrochloride]",> 1000
10,"COc1ccc(C(=O)c2c(C)[nH]c(-c3ccccc3)c2N)cc1 [Example 24, 3-Amino-4-(p-methoxybenzoyl)-5-methyl-2-phenylpyrrole]",500
11,"CCC(=O)c1c(C)[nH]c(-c2ccccc2)c1N [Example 21, 3-Amino-5-methyl-2-phenyl-4-propionylpyrrole]",500
12,"CC(=O)c1c(C)[nH]c(-c2ccc(Cl)cc2)c1N [Example 26, 4-Acetyl-3-amino-2-(p-chlorophenyl)-5-methylpyrrole]",> 1000

# Source: patent US4198502A, “Aminopyrrole derivatives” (Gruppo Lepetit S.p.A., priority 1973, dated 1980)
